For test [1], the system named is 12xCSL promoter H2B-citrine reporter. As to the kind of experiment: H2B-citrine reporter driven by 12xCSL promoter in CHO cells with sasgCSL. The conditions noted are these: with S. aureus-specific sgRNA (sasgCSL). The test is classed as cell-based, Chinese hamster. The text has this:
Chimera modularity was further explored by testing another Cas9 ortholog in a similar reporter assay (H2B-citrine driven by a 12×CSL promoter that also allows wild-type NICD to bind). A Staphylococcus aureus dCas9 was introduced in the NC5 design. This resulting S. au.
All cell lines used in FIGS. 31A-31F were based on the cell line T-Rex-CHO-K1 (Invitrogen). Stable cell clones of UAS-H2B-citrine and 12×CSL-H2B-citrine were obtained. Additional cell lines were generated from lentiviral transduction (of all sgRNAs and SV40-EGFP) or plasmid transfection using TransIT-LT1 reagent (Minis Bio) per manufacturer's instructions, followed by appropriate antibiotic selection and maintenance. Stably transfected clones expressing NC5 and sgUAS in the UAS-H2B-citrine line were isolated by FACS, after 2 weeks of puromycin and geneticin selection. All CHO cell lines were grown in Alpha MEM with Earle's Salts (Irvine Scientific) supplemented with 10% Tet System Approved FBS (Clontech), 100 U/mL of penicillin and streptomycin, 2 mM L-glutamine (Gibco) and 10 μg/mL blasticidin (VWR International) at 37° C. with 5% CO2 in a humidified incubator.
Surface adsorption of Delta: Experiments described in this example were performed with cells plated on 24- or 48-well plates (Corning) at 1.5×10^4 cells/mL. […]

Test [2] concerns UAS promoter controlling H2B-citrine reporter gene. As to the kind of experiment: Delta-dependent H2B-citrine reporter activation in CHO UAS-H2B cells with sgUAS. It counts as cell-based, Chinese hamster. How it is done:
A fusion construct, NC1, was created by replacing the NICD from human NOTCH1 with the Streptococcus pyogenes dCas9 fused to a tripartite activation domain (VP64, p65, and Rta) (FIG. 31B) with three copies of a nuclear localization signal (NLS) sequence. The construct was fluorescently tagged with mCherry to determine its subcellular distribution. Next, it was determined how the NC1 fusion construct responded to extracellular Delta ligands when transfected in mammalian cells. A Chinese hamster ovary (CHO) reporter cell line was used that was previously developed to dissect Notch-Delta signaling (Sprinzak, D. et al. Cis-interactions between Notch and Delta generate mutually exclusive signalling states. Nature 465, 86-90, doi:10.1038/nature08959 (2010)). The CHO cell line contained an inducible UAS (upstream activating sequence) promoter controlling the citrine (YFP)-tagged reporter gene, histone 2B (H2B). sgRNAs (sgUAS) were stably expressed via lentiviral transduction that allow cleaved dCas9 to bind to the UAS promoter (see Table 6). […] By imaging the fluorescence of nucleus-bound H2B-citrine, it was determined whether NC1 induced H2B expression upon exposure to surface-adsorbed Delta (FIG. 31C). […]
(§1) Cells were trypsinized and analyzed for reporter fluorescence or protein immunofluorescence using a Scanford FACScan analyzer (Becton Dickinson) and standard protocols. […]

Test [3] concerns cyclin-dependent kinase inhibitor 1B (CDKN1B). Nature of the test: Delta-dependent CDKN1B upregulation and G0/G1 arrest in HEK293 sgCDKN1B cells. It counts as cell-based, human.
Description: Combining the ability to route native extracellular signals with the discriminatory power of sgRNA-mediated Cas9 binding to virtually any genomic target opens up an exponential amount of signaling pathways and functions (FIG. 32A). The Notch chimeric receptors disclosed herein were used to elicit a novel Delta-dependent arrest of the cell-division cycle. HEK293 cells were stably transduced with lentivirus-packaged sgRNAs that specifically target cyclin-dependent kinase inhibitor 1B (CDKN1B), an endogenous regulator of the cell cycle. […] NC5 was transfected into HEK293 cells stably expressing sgRNAs for CDKN1B (sgCDKN1B) and the cells were subsequently introduced onto bare or Delta-containing surfaces. […] 38% of Delta-exposed, NC5-transfected, and sgCDKN1B^+ cells were determined to be sequestered at the G0/G1 phase, and only 2-16% of cells in all other conditions tested. […]
as §1

In another test the test system is tet-inducible EGFP gene. Nature of the test: EGFP activation in HEK293T tet-inducible EGFP sgTET reporter cells on immobilized Delta. Conditions: cells cultured without Delta, and DAPT-treated cells with the highest Delta concentration, 3 days. It counts as cell-based, human. How it is done: Activation of NC5 receptors by immobilized Delta ligand leads to cleavage and nuclear translocation of dCas9-VPR. dCas9-VPR complexed with a sequence-specific sgRNA (e.g., sgTET) allows for binding of the complex to the (e.g., TET) promoter and activation of EGFP gene (FIG. 31G). […] Cells transfected with dCas9-VPR or NC5 receptor (with or without the γ-secretase inhibitor, DAPT) were cultured with or without immbolized Delta for 3 days. Percentage of activated cells (ON %) is also indicated. Cells are considered ON above the basal intensity of all cells with no construct. […] Mean fold change compared to DAPT-treated condition is indicated.
Surface adsorption of Delta: Experiments described in this example were performed with cells plated on 24- or 48-well plates (Corning) at 1.5×10^4 cells/mL. […] For experiments with CHO cells, 5 μg/mL of hamster fibronectin (Innovative Research) was also adsorbed together with Delta.
Cells were trypsinized and analyzed for reporter fluorescence or protein immunofluorescence using a Scanford FACScan analyzer (Becton Dickinson) and standard protocols. For intracellular proteins, cells were trypsinized and fixed in 4% paraformaldehyde solution for 15 minutes, were incubated for 2 h at room temperature with the appropriate primary antibody in a solution of 0.3% Triton-X 100 (Sigma) with 2% normal donkey serum (Thermo Fisher) in PBS. […]

A further test deals with pTET-EGFP reporter. Nature of the test: EGFP reporter activation by dCas9-VPR iNLS variants in HEK293 pTET-EGFP sgTET cells. The test is classed as cell-based, human. The text has this: Cas9 found at amino acid residues 647-670. […] Representative histograms of EGFP activation in the presence or absence (bottom) of constructs and quantification of EGFP activation (normalized to untransfected cells) is shown (SEQ ID NO: 31, 32). […] FIGS. 35C and 35D show visually by microscopy and quantitatively that adding a synthetic NLS to the N-terminus of iNLS-mutated dCas9-VPR partially restores EGFP activation.
Cas9. This iNLS sequence ([…] (SEQ ID NO: 31)) of amino-acid residues was mapped to a helix-linker-helix motif in the crystal structure of S. py. Cas9. […] Mutating 6 arginine or lysine residues of the iNLS to alanines ([…] (SEQ ID NO: 32)) in a dCas9-VPR-mCherry construct impaired EGFP activation (from 18-fold down to 4-fold) in HEK293 reporter cells. […] Disrupting this iNLS motif by mutating arginine and lysine residues to alanines […] […] Representative histograms of EGFP reporter are shown to the right; percentage of cells considered ‘ON’ had reporter intensities above untransfected ‘OFF’ cells.

The subject of a further test is luciferase reporter gene. Nature of the test: Luciferase reporter activation by chimeric CXCR4-dCas9-VPR in HEK293 cells. The test is classed as cell-based, human. The text has this:
FIGS. 23A and 23B show the results from three independent experiments testing the activity of a chimeric CXCR4-dCas9-VPR-mCherry 2301 in host cells, e.g., HEK293 cells. After ligand binding 2311, the β2-arrestin-protease was recruited to the activated receptor and the protease released the dCas9-VPR-mCherry from the receptor 2321. The expression construct for the β2-arrestin-protease is shown as 2351. The reporter construct is shown in 2341. In each experiment, the dCas9-VPR was paired with a single guide RNA (sgRNA) that specifically activates luciferase expression, which in turn generates luminescence. In this experiment a sgRNA-BFP was used 2331. In some experiments, a scFv-mCherry-VPR 2305 and/or a dCas9-10×GCN4 2307 was used as a control.
The CXCR4-dCas9-VPR-mCherry 2361 was conditionally expressed from a doxycycline-inducible promoter (TRE3G), such that only addition of doxycycline (Dox) and the presence of a co-activator can trigger expression of the recombinant receptor. Without Dox, there is no luminescence (FIG. 23B). […] Upon Dox addition, chimeric CXCR4-dCas9 was expressed, and luminescence was detected. […] Chimeric GPCR-dCas9 proteins described herein can be expressed in immune cells such as T cells and macrophages. Also, chemotactic experiments can be performed to determine if CXCL12 can serves as a chemoattractant to T cells expressing the chimeric GPCR-dCas9 proteins. […]
For orientation: Reporter assays use an easily measured gene product as a stand-in for the process of interest.

The test system of a further test is GFP reporter. Nature of the test: GFP reporter activation by chimeric GPCR-dCas9-VPR receptors in HEK293T cells. The test is classed as cell-based, human. Conditions: sgRNA and β2-arrestin-protease; presence of ligand (LPA, SDF1, or CNO) compared to absence of ligand. The text has this: The released dCas9-VPR was then targeted by sgRNA to a target polynucleotide to alter expression levels of a GFP reporter.

The test system of test [4] is CDKN1B (cyclin-dependent kinase inhibitor 1B). As to the kind of experiment: CDKN1B upregulation and cell cycle arrest with minimal NC5 variants in HEK293T cells. It counts as cell-based, human. Conditions: cells with minimal NC5 receptor variant and sgCDKN1B. The text has this: Minimal NC5 receptor variants were used to elicit Delta-dependent arrest of the cell cycle (FIG. 39A). CDKN1B (cyclin-dependent kinase inhibitor 1B) was targeted in HEK293T cells with sgRNAs (sgCDKN1B). CDKN1B overexpression leads to cellular arrest at the G0/G1 phase (FIG. 39B). […] The Delta-induced CDKN1B upregulation and G0/G1 arrest in cells was abrogated with DAPT (FIGS. 39E and 39F).

On to “S. au. NC5 dCas9 variant: NC5 design with Staphylococcus aureus dCas9”, for which, in test [1], the “Delta-dependent activation levels of H2B-citrine” value is “exhibited Delta-dependent activation levels similar to wild-type human NOTCH1”.

Take “NC5: hNECD-dCas9-VPR-mCherry with LMAN1 MMS sequence at the C-terminus, no synthetic NLS”: the “H2B activation in response to Delta” value in test [2] (CHO reporter cells with NC5 and sgUAS stably integrated, single clone) was “Three-fold”. For the same compound, in test [2] (transfected CHO UAS-H2B-citrine sgUAS cells, bare or Delta-coated surface, 4 days), the “H2B expression with or without Delta” value was “exhibited Delta-dependent activation of H2B”. The “upregulation of CDKN1B” value in test [3] (4 days on Delta, compared to bare-surface, untransfected controls) was above 2 fold. Also, the “cells sequestered at the G0/G1 phase” value in test [3] (Delta-exposed, NC5-transfected, sgCDKN1B+ cells) is listed as 38%. For the same compound, the EGFP activation entry in the test on tet-inducible EGFP gene was “did not activate EGFP”.

Turning to “mutated-iNLS variant: dCas9-VPR-mCherry with 6 arginine or lysine residues of the iNLS mutated to alanines (SEQ ID NO: 32) (VMAQLKAAAYTGWGRLSAALINGI)”, the “nuclear localization and EGFP reporter activation” value in the test on pTET-EGFP reporter (HEK293T cells, confocal microscopy) is “severely impaired nuclear localization and EGFP reporter activation”. Also, the “percentage of cells that activate EGFP” value with pTET-EGFP reporter (HEK293 reporter cells) is given as around 16%. Besides, the EGFP activation was 4 fold with pTET-EGFP reporter (HEK293 reporter cells, normalized to untransfected cells) and “partially restored EGFP activation” in the test on pTET-EGFP reporter (synthetic NLS added back to the N-terminus).

As for “CXCR4-dCas9-VPR: CXCR4-V2 tail-TEV cleavage site-dCas9-VPR-NLS-mCherry, SEQ ID NO:3”, the “luminescence (luciferase reporter)” value in the test on luciferase reporter gene (HEK293 cells, sgRNA activating luciferase, receptor induced with doxycycline) was “sensitive to increasing concentrations of the CXCR4 ligand, CXCL12”. The “transcription of luciferase gene” value with luciferase reporter gene (sgTET, TetO promoter, β2-arrestin-protease) is listed as “regulated by CXCL2 binding”. Moreover, the “levels of GFP reporter protein” value in the test with GFP reporter was “increased levels of GFP reporter protein”.

Turning to `C[C@H](NC(=O)Cc1cc(F)cc(F)c1)C(=O)N[C@H](C(=O)OC(C)(C)C)c1ccccc1` [DAPT], the “Delta-induced CDKN1B upregulation and G0/G1 arrest” value in test [4] is reported as “abrogated”.

Values taken from US10457961B2, “Chimeric proteins and methods of regulating gene expression” (The Board of Trustees of the Leland Stanford Junior …, priority 2016, dated 2019).
